Laboratory results as given in US20250135009A1, “INTRATYMPANIC DRUG CONTROLLED RELEASE-TYPE FORMULATION COMPRISING N-ACYLATED GLYCOL CHITOSAN” (The Industry & Academic Cooperation in Chungnam National …, priority 2021, published 2025).
Converted amounts (≈) assume the structure as drawn.

Columns and labels:
physchem = test: physchem
Protocol: Changes in water solubility of dexamethasone (DEX) with changes in HGC concentration were analyzed. An excessive amount of DEX was added to 3 mL of an aqueous solution of HGC (PBS, HGC concentration=0 to 4%, w/v). The samples were then stirred for 30 minutes and incubated in a shaking water bath (100 rpm, 37° C.) for 24 hours. All the samples were filtered through a syringe filter (0.8 μm) to remove precipitates and then analyzed using a UV-visible spectrophotometer (V-730, JASCO, Korea). The solubility value of DEX was determined using a standard curve of various DEX concentrations obtained at 242 nm. The test was repeated three times.

[1] = In vitro drug release in PBS using a dialysis membrane; format: physicochemical; settings: HGC 3.0 wt %, drug 2.0 wt % formulations and drug controls
Protocol: The in vitro drug release profiles of the thermogel formulations were examined in PBS (pH 7.4) using a dialysis membrane. […] Then, the dialysis bags were immersed in 50 mL of PBS and incubated in a shaking water bath (SI-600R, Jeio Tech, Seoul, Korea) at 37° C. and 100 rpm or less.
After incubation, 10 ml of the release medium was taken out and the same amount of fresh medium was added again. The collected samples were analyzed by UV-Vis measurement. The DEX release profile was determined by measuring the UV absorbance of DEX at 242 nm. The experiment was performed in triplicate and data are expressed as mean±SD.
023 microspheres loaded with dexamethasone were mixed with 4 wt % of HGC hydrogel. An in vitro drug release test was conducted in a PBS (pH 7.4, 50 ml) environment in the same manner as in Example 4. Sampling was performed at days 0, 0.5, 1, 2, 4, 7, 14, 21, 28, and 30.
Dexamethasone-loaded 061 or 062 microspheres were mixed with 4 wt % of HGC hydrogel, and an in vitro drug release test therefor was conducted in the same manner as the test for the 023.

Compound	increase of solubility of dexamethasone (physchem)	solubility at 24 h (physchem; 37 °C, aqueous with cosolvent or surfactant or cyclodextrin, thermodynamic from solid)	solubility of dexamethasone in PBS (physchem; HGC 0 wt %, 37° C., 24 hours)	drug release behavior (Example 8-2) [1]
C[C@@H]1C[C@H]2[C@@H]3CCC4=CC(=O)C=C[C@]4(C)[C@@]3(F)[C@@H](O)C[C@]2(C)[C@@]1(O)C(=O)CO [DEX, Dexamethasone]	about 4 times	221 µg/mL (≈ 563 µM)	64 µg/mL	–
C[C@@H]1C[C@H]2[C@@H]3CCC4=CC(=O)C=C[C@]4(C)[C@@]3(F)[C@@H](O)C[C@]2(C)[C@@]1(O)C(=O)COP(=O)([O-])[O-].[Na+].[Na+] [DSP, DEX phosphate disodium salt]	–	–	–	completely released the drug quickly within a few hours
